The values that follow come from patent US8809550B2, “Androgen receptor antagonists and uses thereof” (priority 2009, dated 2014).

In experiment [1] the test system is Prostate-specific Antigen (PSA) production in LNCaP cells. Nature of the experiment: PSA assay: inhibition of PSA production in LNCaP cells (ELISA). Format: cell-based. To be noted: Homo sapiens, 72 h, R1881 1 ng/ml, three days, seven point assay. Here is the method: (§1) PSA Assay (Inhibition Test of the Compound of the Present Invention on Prostate-Specific Antigen (PSA) Production in Various Prostate Cancer Cells)
(§2) Androgen dependent LNCaP and 22RV1 cells were purchased from the American Type Culture Collection (ATCC, Manassas, Va.). These cells were grown in RPMI 1640 medium supplemented with 10% fetal bovine serum (FBS), 100 U/mL penicillin, 100 μg/mL streptomycin, and 0.25 μg/mL amphotericin B. The cells were maintained at 37° C. and 5% CO2. LNCaP cells between passage 20 and 35, and 22RV1 cells between passage 30 and 50 were used for experiments. LNCaP is a hormone sensitive cell line, while 22RV1 is a hormone refractory prostate cancer cell line, which derived from a primary prostate tumor. This cell line was isolated from a xenograft (CWR22R-2152) that was serially propagated in mice after castration-induced regression and relapse of the parental, androgen-dependent CWR xenograft. For the PSA assay, human prostate cancer cells LNCaP or 22RV1 were seeded in a 96-well plate at a concentration of 5000 cells/100 μl/well. On the following day, Methyltrienolone (R1881, AR agonist) (final concentration 1 ng/ml), test compounds or bicalutamide (Casodex®, AstraZeneca) (final concentration 0.005 to 20 μM) were added. Three days after the addition, the concentration of PSA in the supernatant of the culture solution was measured by ELISA. ELISAs for human PSA in culture medium were performed using the ultra-sensitive assay procedure and reagents in the Active™ PSA assay kit (Diagnostic Systems Laboratories Inc., Webster, Tex.). Culture medium and standards (200 μl/well) were incubated in antibody-coated plates for 2 h at room temperature on a Titer plate shaker at 500-600 rpm. Wells were then washed five times. The HRP conjugate was diluted 1:20 with assay buffer, and 100 μl was added to all wells. The plates were incubated for 30 min at room temperature on the shaker and washed as before, and 100 μl TMB (3,3′,5,5′-tetramethylbenzidine, 0.4 g/l) was added. The plates were incubated for 10 min on the shaker, and the reaction was terminated with 100 μl stop solution. The plates were read using a plate reader at 450 nm with a 650 nm reference filter. PSA levels were normalized for differences in growth of LNCaP or 22RV1 cells following various treatments as determined by the MTS assay. IC50 of PSA was calculated based on a seven point assay (concentrations of tested compound) and expressed as micromolar (uM). Results on 22RV1 cells are shown as percent inhibition at 2 micromolar (uM). ND means not determined

Experiment [2] relates to Prostate-specific Antigen (PSA) production in 22RV1 cells. Nature of the experiment: PSA assay: inhibition of PSA production in 22RV1 cells (ELISA). The following applies: Homo sapiens, 72 h, R1881 1 ng/ml, three days. It is filed as cell-based. On the procedure:
as §1
as §2, with “Results on 22RV1 cells are shown as percent inhibition at 2 micromolar (uM).” left out

`CNC(=O)c1ccc(N2C(=S)N(c3cc(F)c(C#N)cc3F)C(=O)C23CCC3)cc1F` [Example 3, 4-[7-(4-Cyano-2,5-difluoro-phenyl)-8-oxo-6-thioxo-5,7-diaza-spiro[3.4]oct-5-yl]-2-fluoro-N-methyl-benzamide]: the IC50 in experiment [1] worked out at 2100 nM. The inhibition at 2 µM in experiment [2] is 21%.

`CNC(=O)c1ccc(N2C(=S)N(c3ccc(C#N)cc3OC(F)(F)F)C(=O)C23CCC3)cc1F` [Example 4, 4-[7-(4-Cyano-2-trifluoromethoxy-phenyl)-8-oxo-6-thioxo-5,7-diaza-spiro[3.4]oct-5-yl]-2-fluoro-N-methyl-benzamide]: the IC50 in experiment [1] came to 1400 nM.

The compound `CNC(=O)c1ccc(N2C(=S)N(c3ccc(C#N)cc3F)C(=O)C23CCC3)cc1F` [Example 5, 4-[7-(4-Cyano-2-fluoro-phenyl)-8-oxo-6-thioxo-5,7-diaza-spiro[3.4]oct-5-yl]-2-fluoro-N-methyl-benzamide] had an IC50 in experiment [1] of 1400 nM.

For the compound `CNC(=O)c1ccc(N2C(=S)N(c3ccc(C#N)cc3C)C(=O)C23CCC3)cc1F` [Example 6, 4-[7-(4-Cyano-2-methyl-phenyl)-8-oxo-6-thioxo-5,7-diaza-spiro[3.4]oct-5-yl]-2-fluoro-N-methyl-benzamide], the IC50 in experiment [1] is 1500 nM.

For the compound `CNC(=O)c1ccc(N2C(=S)N(c3ccc(C#N)cc3C(F)(F)F)C(=O)C23CCC3)cc1F` [Example 7, 4-[7-(4-Cyano-2-trifluoromethyl-phenyl)-8-oxo-6-thioxo-5,7-diaza-spiro[3.4]oct-5-yl]-2-fluoro-N-methyl-benzamide], in experiment [1], the IC50 was found to be 1500 nM.

In turn, `CNC(=O)c1ccc(N2C(=S)N(c3ccc(C#N)c(C#N)c3)C(=O)C23CCC3)cc1F` [Example 9, 4-[7-(3,4-Dicyano-phenyl)-8-oxo-6-thioxo-5,7-diaza-spiro[3.4]oct-5-yl]-2-fluoro-N-methyl-benzamide] gave an IC50 in experiment [1] of 980 nM. In experiment [2], this compound yielded an inhibition at 2 µM of 64%.

Take `CC1(C)C(=O)N(c2ccc(C#N)c(C(F)(F)F)c2F)C(=S)N1c1ccc(S(C)(=O)=O)cc1` [Example 13, 3-Fluoro-4-[3-(4-methanesulfonyl-phenyl)-4,4-dimethyl-5-oxo-2-thioxo-imidazolidin-1-yl]-2-trifluoromethyl-benzonitrile]: in experiment [1], half-maximal inhibition (IC50) was put at 520 nM. In addition, the inhibition at 2 µM in experiment [2] amounted to 61%.

`CC1(C)C(=O)N(c2ccc(C#N)c(C(F)(F)F)c2F)C(=S)N1c1ccc(C#N)cc1` [Example 14, 4-(4,4-Dimethyl-5-oxo-2-thioxo-3-p-cyanophenyl-imidazolidin-1-yl)-3-fluoro-2-trifluoromethyl-benzonitrile] came in with an IC50 in experiment [1] of 490 nM. At 2 µM the inhibition in experiment [2] was 71%.

In the case of `Cc1ccc(N2C(=S)N(c3ccc(C#N)c(C(F)(F)F)c3F)C(=O)C2(C)C)cn1` [Example 15, 4-[4,4-Dimethyl-3-(6-methyl-pyridin-3-yl)-5-oxo-2-thioxo-imidazolidin-1-yl]-3-fluoro-2-trifluoromethyl-benzonitrile], in experiment [1], the IC50 stood at 350 nM. The inhibition at 2 µM in experiment [2] came to 69%.

Consider `CC1(C)C(=O)N(c2ccc(C#N)c(Cl)c2F)C(=S)N1c1ccc(S(C)(=O)=O)cc1` [Example 16, 2-Chloro-3-fluoro-4-[3-(4-methanesulfonyl-phenyl)-4,4-dimethyl-5-oxo-2-thioxo-imidazolidin-1-yl]-benzonitrile], for which, in experiment [1], the IC50 came to 630 nM. In experiment [2], the inhibition at 2 µM is 70%.

Compound `Cc1ccc(N2C(=S)N(c3ccc(C#N)c(Cl)c3F)C(=O)C2(C)C)cn1` [Example 17, 2-Chloro-4-[4,4-dimethyl-3-(6-methyl-pyridin-3-yl)-5-oxo-2-thioxo-imidazolidin-1-yl]-3-fluoro-benzonitrile] yielded an IC50 in experiment [1] of 310 nM. Also, 2 µM produced 76% inhibition in experiment [2].

The compound `COc1c(C#N)ccc(N2C(=O)C(C)(C)N(c3ccc(S(C)(=O)=O)cc3)C2=S)c1F` [Example 21, 3-Fluoro-4-[3-(4-methanesulfonyl-phenyl)-4,4-dimethyl-5-oxo-2-thioxo-imidazolidin-1-yl]-2-methoxy-benzonitrile] displayed an IC50 in experiment [1] of 1800 nM.

The compound `CNC(=O)c1ccc(N2C(=S)N(c3ccc(C#N)c(OC)c3F)C(=O)C2(C)C)cc1F` [Example 22, 4-[3-(4-Cyano-2-fluoro-3-methoxy-phenyl)-5,5-dimethyl-4-oxo-2-thioxo-imidazolidin-1-yl]-2-fluoro-N-methyl-benzamide] showed an IC50 in experiment [1] of 520 nM. At 2 µM the inhibition in experiment [2] was 57%.

With `Cc1ccc(N2C(=S)N(c3ccc(C#N)c(C#N)c3)C(=O)C2(C)C)cc1F` [Example 25, 4-[3-(3-Fluoro-4-methyl-phenyl)-4,4-dimethyl-5-oxo-2-thioxo-imidazolidin-1-yl]-phthalonitrile], it took 290 nM to reach half-maximal inhibition in experiment [1] (IC50). In experiment [2], this compound showed an inhibition at 2 µM of 82%.

In experiment [1], `Cc1ccc(N2C(=S)N(c3ccc(C#N)c(Cl)c3F)C(=O)C2(C)C)cc1` [Example 29, 2-Chloro-4-(4,4-dimethyl-5-oxo-2-thioxo-3-p-tolyl-imidazolidin-1-yl)-3-fluoro-benzonitrile] returned an IC50 of 280 nM. Also, in experiment [2], the inhibition at 2 µM was 78%.

`Cc1ccc(N2C(=S)N(c3ccc(C#N)c(Cl)c3F)C(=O)C2(C)C)cc1F` [Example 31, 2-Chloro-3-fluoro-4-[3-(3-fluoro-4-methyl-phenyl)-4,4-dimethyl-5-oxo-2-thioxo-imidazolidin-1-yl]-benzonitrile] showed an IC50 in experiment [1] of 420 nM. In experiment [2], this compound returned an inhibition at 2 µM of 67%.
